{"source": "patent US12544348B2", "about": "“Methods for treating APOE4/4-associated disorders” (The Regents of the University of California, priority 2018, dated 2026)", "tested_on": "apoE3-KI mice", "experiment": "Morris water maze (MWM) spatial learning and memory, aged apoE3-KI mice", "assay_type": "in vivo", "settings": "for short-term memory, 24-hour probe trial: vs vehicle-treated apoE3-KI", "text": "Mice. All protocols and procedures followed the guidelines of the Laboratory Animal Resource Center at the University of California, San Francisco (UCSF). All mice were housed under identical conditions from birth through death (12-hour light/dark cycle, housed 5/cage, PicoLab Rodent Diet 20). All mouse lines were maintained on a C57Bl/6J background. ApoE3-KI and apoE4-KI homozygous mouse lines (Taconic)^30,31 were born and aged under normal conditions at the Gladstone Institutes/UCSF animal facility. Female apoE-KI mice were used because of their susceptibility to AD-related neuronal and behavioral deficits. The ages of the mice are indicated in the behavioral testing section of the online methods. Bumetanide treatment. Bumetanide was prepared at 220 μM in 2% DMSO in 0.9% sterile saline, adjusted to pH 8.5 with NaOH for solubility, and given by i.p. injection daily starting 6 weeks before and continuing throughout behavioral assessment. Body weight was measured weekly during bumetanide treatment; injection volume was calculated to achieve a dose of 0.02 (low) or 0.2 (high) mg bumetanide/kg body mass (e.g., 50-ul daily injection for a 20-g mouse). Control mice were injected with a matched volume of 2% DMSO in 0.9% sterile saline, pH 8.5. […] Behavioral testing. Mice were singly housed before testing. Each mouse was assigned a random number, so researchers were blinded to genotype and treatment information. At about 14 months of age, apoE3-KI and apoE4-KI mice were randomly assigned to treatment groups: apoE3-KI vehicle (n=10, age 14.01±0.44 months), apoE3-KI low bumetanide (n=11, age 14.30±0.33 months), apoE3-KI high bumetanide (n=10, age 13.74±0.22 months), apoE4-KI vehicle (n=10, age 14.10±0.35), apoE4-KI low bumetanide (n=10, age 14.70±0.27 months), apoE4-KI high bumetanide (n=9, age 13.77±0.28 months). Treatment was administered daily by i.p. injection beginning 6 weeks before and continuing throughout the 14 days of testing in the Morris water maze (MWM); injections were given at the end of the light cycle and after the day's test. The MWM pool (diameter, 122 cm) contained opaque water (22-23° C.) with a platform 10 cm in diameter. The platform was submerged 1.5 cm during hidden platform sessions^20-23,32 and marked with black-and-white-striped mast (15 cm high) during cued training sessions. Mice were trained to locate the hidden platform (hidden days 1-5) and the cued platform (visible days 1-3) in two daily sessions (3.5 h apart), each consisting of two 60-s trials (hidden and cued training) with a 15-min intertrial interval. Distal visual cues on the walls of the behavioral testing room remained constant throughout the test. Visible trials took place after training and memory probes and were 60 seconds long with a cued visible platform. The platform location remained constant in the hidden platform sessions but was changed for each cued (visible) platform session. Entry points were changed semirandomly between trials. At 24, 72, and 120 hours after the last hidden platform training, a 60-s probe trial (platform removed) was done. The entry point for the probe trial was in the southwest quadrant, and the target quadrant was the northeast quadrant. Performance was monitored with an Etho Vision video-tracking system (Noldus Information Technology). For the probe trials, the following analyses were performed (1) the percent time spent in the target quadrant versus average time spent in the three other quadrants, (2) the number of crossings over the position of the target platform versus the average number of crossings over the equivalent positions in the three other quadrants and (3) the distance to platform over the first 10 seconds. Statistical analyses. Behavior metrics are expressed as mean±SEM. All values for n are the numbers of mice or biological replicates. The distribution of data was assessed with the Shapiro-Wilk normality test; most of the data were normally distributed. […]", "key": {"[1]": {"settings": "apoE3-KI mice, high dose 0.2 mg/kg daily i.p. 8 weeks"}, "[2]": {"settings": "apoE3-KI mice, low dose 0.02 mg/kg daily i.p. 8 weeks"}}, "data": [{"compound": "CCCCNc1cc(C(=O)O)cc(S(N)(=O)=O)c1Oc1ccccc1", "note": "[bumetanide, 3-(butylamino)-4-phenoxy-5-sulfamoylbenzoic acid]", "values": [{"measurement": "long-term memory, 120-hour probe trial (summary paragraph, dose not stated)", "setting": "aged apoE3-KI mice, dose not stated, vehicle-treated apoE3-KI mice did not", "result": "remembered the hidden platform location"}, {"measurement": "learning curve (escape latency) in hidden platform trials", "setting": "apoE3-KI mice, 0.02 or 0.2 mg/kg daily i.p. 8 weeks, vs vehicle, learning days 1-5", "result": "did not differ"}, {"measurement": "long-term memory, 120-hour probe trial", "setting": "[1]", "result": "forgot the hidden platform location"}, {"measurement": "platform crossings in target quadrant versus other quadrants, 24-hour probe trial", "setting": "[1]", "result": "not apoE3-KI mice"}, {"measurement": "platform crossings in target quadrant versus other quadrants, 120-hour probe trial", "setting": "[1]", "result": "not apoE3-KI mice"}, {"measurement": "short-term memory, 24-hour probe trial", "setting": "[1]", "result": "impaired short-term memory"}, {"measurement": "long-term memory, 120-hour probe trial", "setting": "[2]", "result": "forgot the hidden platform location"}, {"measurement": "short-term memory, 24-hour probe trial", "setting": "[2]", "result": "performed equally well"}]}]}
